Assay results taken from patent US9512144B2, “Imidazothiazole sufonamides as nematicides” (BAYER CROPSCIENCE AKTIENGESELLSCHAFT, priority 2013, dated 2016).

system: Meloidogyne incognita; test: Meloidogyne incognita test (MELGIN): sand, salad seeds, gall formation after 14 days; assay type: in vivo; conditions: application rate 20 ppm, salad seedlings in sand
Description: Solvent: 125.0 parts by weight of acetone To produce a suitable preparation of active compound, 1 part by weight of active compound is mixed with the stated amount of solvent, and the concentrate is diluted with water to the desired concentration. Vessels are filled with sand, a solution of the active ingredient, a suspension containing eggs and larvae of the southern root-knot nematode (Meloidogyne incognita) and salad seeds. The salad seeds germinate and the seedlings grow. Galls develop in the roots. After 14 days the nematicidal activity is determined on the basis of the percentage of gall formation. 100% means that no galls were found; 0% means that the number of galls found on the roots of the treated plants was equal to that in untreated control plants.

Row | Compound | nematicidal activity on the basis of the percentage of gall formation (100% = no galls) [%]
1 | O=C(NS(=O)(=O)c1cc(Cl)ccc1Cl)c1cn2cc(C(F)(F)F)sc2n1 [Example I-1-6] | 100
2 | Cc1ccc(OC(F)F)cc1S(=O)(=O)NC(=O)c1cn2cc(C(F)(F)F)sc2n1 [Example I-1-7] | 90
3 | O=C(NS(=O)(=O)c1c(F)cccc1F)c1cn2cc(C(F)(F)F)sc2n1 [Example I-1-11] | 100
4 | CC(C)(C)c1cn2cc(C(=O)NS(=O)(=O)c3c(Cl)cccc3Cl)nc2s1 [Example I-1-13] | 100
5 | Cc1cc(S(=O)(=O)NC(=O)c2cn3cc(C(F)(F)F)sc3n2)c(C)cc1Br [Example I-1-14] | 100
6 | CC(C)(C)c1cn2cc(C(=O)NS(=O)(=O)c3cc(Cl)ccc3Cl)nc2s1 [Example I-1-15] | 100
7 | CC(C)(C)c1cn2cc(C(=O)NS(=O)(=O)c3ccccc3Cl)nc2s1 [Example I-1-16] | 100
8 | O=C(NS(=O)(=O)c1ccccc1Cl)c1cn2cc(Cl)sc2n1 [Example I-1-17] | 100
9 | O=C(NS(=O)(=O)c1cc(Cl)ccc1Cl)c1cn2cc(Cl)sc2n1 [Example I-1-18] | 90
10 | COc1ccc(Cl)c(S(=O)(=O)NC(=O)c2cn3cc(Cl)sc3n2)c1 [Example I-1-19] | 100
11 | O=C(NS(=O)(=O)c1c(F)cccc1F)c1cn2cc(Cl)sc2n1 [Example I-1-20] | 100
12 | O=C(NS(=O)(=O)c1cc(C(F)(F)F)ccc1Cl)c1cn2cc(Cl)sc2n1 [Example I-1-21] | 100
13 | Cc1ccc(C)c(S(=O)(=O)NC(=O)c2cn3cc(Cl)sc3n2)c1 [Example I-1-22] | 100
14 | COc1ccc(Cl)c(S(=O)(=O)NC(=O)c2cn3cc(C(C)(C)C)sc3n2)c1 [Example I-1-23] | 100
15 | COc1ccc(Cl)c(S(=O)(=O)NC(=O)c2cn3c(C(F)(F)F)csc3n2)c1 [Example I-1-29] | 90
16 | O=C(NS(=O)(=O)c1cc(Cl)ccc1Cl)c1cn2c(C(F)(F)F)csc2n1 [Example I-1-31] | 100
17 | O=C(NS(=O)(=O)c1c(Cl)cccc1Cl)c1cn2cc(Cl)sc2n1 [Example I-1-43] | 100
18 | Cc1cc(S(=O)(=O)NC(=O)c2cn3cc(Cl)sc3n2)c(C)cc1C#N [Example I-1-45] | 100
19 | O=C(NS(=O)(=O)c1cccc(Cl)c1)c1cn2cc(Cl)sc2n1 [Example I-1-50] | 100
20 | O=C(NS(=O)(=O)c1ccc(Cl)cc1)c1cn2cc(Cl)sc2n1 [Example I-1-51] | 100
21 | COc1ccc(Cl)c(S(=O)(=O)NC(=O)c2cn3cc(Br)sc3n2)c1 [Example I-1-60] | 100
22 | O=C(NS(=O)(=O)c1cccc(Cl)c1)c1cn2cc(C(F)(F)C(F)(F)F)sc2n1 [Example I-1-143] | 90
23 | O=C(NS(=O)(=O)c1ccc(Cl)cc1)c1cn2cc(C(F)(F)C(F)(F)F)sc2n1 [Example I-1-144] | 90
24 | O=C(NS(=O)(=O)c1cc(Cl)ccc1Cl)c1cn2cc(C(F)(F)C(F)(F)F)sc2n1 [Example I-1-145] | 100
25 | Cc1c(C(F)(F)F)sc2nc(C(=O)NS(=O)(=O)c3cccc(Cl)c3)cn12 [Example I-1-155] | 100
26 | Cc1c(C(F)(F)F)sc2nc(C(=O)NS(=O)(=O)c3ccc(Cl)cc3)cn12 [Example I-1-156] | 90
27 | O=C(NS(=O)(=O)c1ccccc1Cl)c1cn2nc(C(F)(F)F)sc2n1 [Example I-1-202] | 90

Row | Compound | nematicidal activity on the basis of the percentage of gall formation (100% = no galls) [%]
28 | O=C(NS(=O)(=O)c1ccccc1F)c1cn2cc(C(F)(F)F)sc2n1 [Example I-1-212] | 100
29 | O=C(NS(=O)(=O)c1ccc(Cl)cc1Cl)c1cn2cc(C(F)(F)C(F)(F)F)sc2n1 [Example I-1-224] | 100
30 | Cc1ccc(C(C)(C)C)cc1S(=O)(=O)NC(=O)c1cn2cc(C(F)(F)C(F)(F)F)sc2n1 [Example I-1-233] | 100
31 | O=C(NS(=O)(=O)c1ccccc1OC(F)(F)F)c1cn2cc(C(F)(F)C(F)(F)F)sc2n1 [Example I-1-234] | 100
32 | O=C(NS(=O)(=O)c1ccccc1-c1ccccc1)c1cn2cc(C(F)(F)C(F)(F)F)sc2n1 [Example I-1-235] | 100
33 | O=C(NS(=O)(=O)c1cccc(Cl)c1Cl)c1cn2cc(C(F)(F)C(F)(F)F)sc2n1 [Example I-1-236] | 100
34 | CCCOc1ccc(Cl)c(S(=O)(=O)NC(=O)c2cn3cc(C(F)(F)C(F)(F)F)sc3n2)c1 [Example I-1-238] | 100
35 | COc1ccccc1S(=O)(=O)NC(=O)c1cn2cc(C(F)(F)C(F)(F)F)sc2n1 [Example I-1-248] | 100
36 | Cc1c(C(F)(F)C(F)(F)F)sc2nc(C(=O)NS(=O)(=O)c3cccc(Cl)c3)cn12 [Example I-1-250] | 90
37 | Cc1ccc(C)c(S(=O)(=O)NC(=O)c2cn3c(C(F)(F)F)csc3n2)c1 [Example I-1-270] | 100
38 | O=C(NS(=O)(=O)c1cccc(Cl)c1)c1cn2cc(C(F)(F)F)sc2n1 [Example I-1-272] | 90
39 | O=C(NS(=O)(=O)c1ccc(Br)c(Cn2cccn2)c1)c1cn2cc(C(F)(F)F)sc2n1 [Example I-1-275] | 90
40 | O=C(NS(=O)(=O)c1ccc(Cl)cc1Cl)c1cn2cc(C(F)(F)F)sc2n1 [Example I-1-279] | 90
41 | O=C(NS(=O)(=O)c1ccccc1OC(F)(F)F)c1cn2cc(C(F)(F)F)sc2n1 [Example I-1-281] | 90
42 | Cc1ccc(Cn2cccn2)cc1S(=O)(=O)NC(=O)c1cn2cc(C(F)(F)F)sc2n1 [Example I-1-288] | 90
43 | Cc1ccc(Cl)cc1S(=O)(=O)NC(=O)c1cn2c(C)c(C(F)(F)F)sc2n1 [Example I-1-290] | 100
44 | O=C(NS(=O)(=O)c1cc(Cn2cccn2)ccc1Cl)c1cn2cc(C(F)(F)C(F)(F)F)sc2n1 [Example I-1-292] | 100
45 | O=C(NS(=O)(=O)c1ccc(Br)c(Cn2cccn2)c1)c1cn2cc(C(F)(F)C(F)(F)F)sc2n1 [Example I-1-293] | 100
46 | Cc1ccc(Cn2cccn2)cc1S(=O)(=O)NC(=O)c1cn2cc(C(F)(F)C(F)(F)F)sc2n1 [Example I-1-295] | 90
47 | CSc1cn2cc(C(=O)NS(=O)(=O)c3cc(C(F)(F)F)ccc3Cl)nc2s1 [Example I-1-296] | 100
48 | CSc1cn2cc(C(=O)NS(=O)(=O)c3cc(Cl)ccc3Cl)nc2s1 [Example I-1-297] | 90
49 | CSc1cn2cc(C(=O)NS(=O)(=O)c3ccccc3Cl)nc2s1 [Example I-1-298] | 100
50 | COc1ccc(Cl)c(S(=O)(=O)NC(=O)c2cn3cc(SC)sc3n2)c1 [Example I-1-299] | 90
51 | CSc1cn2cc(C(=O)NS(=O)(=O)c3c(Cl)cccc3Cl)nc2s1 [Example I-1-300] | 100
52 | CC(=O)c1ccc(Cl)c(S(=O)(=O)NC(=O)c2cn3cc(C(F)(F)F)sc3n2)c1 [Example I-1-301] | 100
53 | CC(=O)c1ccc(Cl)c(S(=O)(=O)NC(=O)c2cn3c(C)c(C(F)(F)F)sc3n2)c1 [Example I-1-302] | 100
54 | CCc1ccc(CC)c(S(=O)(=O)NC(=O)c2cn3cc(C(F)(F)F)sc3n2)c1 [Example I-1-305] | 100
